Calls of active or inactive are those of the source.
What was measured:
[1] = biological target: T1, Heat shock factor protein 1 (Mus musculus, UniProt P38532); assay: enhancement of HSF1-driven luciferase signal – cell-based, NIH3T3, luminescence, dose retest, confirmation (AID 435004); assay type: functional;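 further: stress induced by proteasome inhibitor MG132 added 30 min after compound; luciferase reporter driven by HSF1 response element in NIH3T3 cells; actives raise luminescence as potentiators of the MG132 stress response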
T1 sequence (P38532 whole entry): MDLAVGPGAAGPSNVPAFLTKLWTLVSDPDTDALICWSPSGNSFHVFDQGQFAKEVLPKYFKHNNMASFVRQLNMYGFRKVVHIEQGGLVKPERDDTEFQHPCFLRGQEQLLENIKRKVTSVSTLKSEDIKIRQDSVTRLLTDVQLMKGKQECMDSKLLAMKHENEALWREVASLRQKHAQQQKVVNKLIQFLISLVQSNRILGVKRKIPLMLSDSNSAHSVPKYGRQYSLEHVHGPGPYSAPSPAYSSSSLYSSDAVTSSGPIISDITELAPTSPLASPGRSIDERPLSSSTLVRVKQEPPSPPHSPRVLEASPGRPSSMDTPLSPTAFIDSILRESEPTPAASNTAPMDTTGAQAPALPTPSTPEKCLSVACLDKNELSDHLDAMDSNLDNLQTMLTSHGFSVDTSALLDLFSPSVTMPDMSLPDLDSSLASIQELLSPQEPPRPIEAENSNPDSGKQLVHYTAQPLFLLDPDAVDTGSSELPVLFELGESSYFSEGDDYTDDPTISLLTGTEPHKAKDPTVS

Protein RecA = biological target: T2, Protein RecA (Mycobacterium tuberculosis, UniProt P9WHJ3); assay: Fluorescence Cell-Free Homogeneous Dose Retest to Identify Inhibitors of RecA-Intein Splicing Activity. [Related pubchem assays (depositor defined):AID2097, AID2223, AID489010, AID492950]; assay type: functional
T2 sequence (P9WHJ3 whole entry): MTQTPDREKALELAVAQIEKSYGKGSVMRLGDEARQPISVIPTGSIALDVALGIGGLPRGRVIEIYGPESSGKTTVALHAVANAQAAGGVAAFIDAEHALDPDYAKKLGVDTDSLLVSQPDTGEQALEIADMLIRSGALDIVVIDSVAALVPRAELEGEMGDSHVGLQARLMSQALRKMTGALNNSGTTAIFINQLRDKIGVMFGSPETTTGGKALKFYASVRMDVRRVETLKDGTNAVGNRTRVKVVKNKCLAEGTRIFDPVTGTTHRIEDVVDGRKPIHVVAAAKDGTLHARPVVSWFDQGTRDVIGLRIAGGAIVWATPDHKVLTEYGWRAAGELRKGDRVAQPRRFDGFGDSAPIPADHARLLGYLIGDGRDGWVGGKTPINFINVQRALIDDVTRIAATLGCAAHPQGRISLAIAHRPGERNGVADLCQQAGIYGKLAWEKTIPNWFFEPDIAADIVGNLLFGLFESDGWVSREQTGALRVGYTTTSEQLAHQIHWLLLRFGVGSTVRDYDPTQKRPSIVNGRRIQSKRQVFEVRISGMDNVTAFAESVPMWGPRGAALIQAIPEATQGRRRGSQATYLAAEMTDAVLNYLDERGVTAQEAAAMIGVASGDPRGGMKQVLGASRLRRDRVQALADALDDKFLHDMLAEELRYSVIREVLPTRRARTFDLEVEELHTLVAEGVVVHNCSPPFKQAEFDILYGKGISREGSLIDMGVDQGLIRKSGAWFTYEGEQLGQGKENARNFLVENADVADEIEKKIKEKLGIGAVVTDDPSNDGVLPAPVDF

[2] = biological target: T3, Mannose-6-phosphate isomerase (Homo sapiens, UniProt P34949); assay: MPI inhibition at elevated mannose 6-phosphate – biochemical, fluorescence intensity, high mannose 6-phosphate, primary screen (AID 1220)
T3 sequence (P34949 whole entry): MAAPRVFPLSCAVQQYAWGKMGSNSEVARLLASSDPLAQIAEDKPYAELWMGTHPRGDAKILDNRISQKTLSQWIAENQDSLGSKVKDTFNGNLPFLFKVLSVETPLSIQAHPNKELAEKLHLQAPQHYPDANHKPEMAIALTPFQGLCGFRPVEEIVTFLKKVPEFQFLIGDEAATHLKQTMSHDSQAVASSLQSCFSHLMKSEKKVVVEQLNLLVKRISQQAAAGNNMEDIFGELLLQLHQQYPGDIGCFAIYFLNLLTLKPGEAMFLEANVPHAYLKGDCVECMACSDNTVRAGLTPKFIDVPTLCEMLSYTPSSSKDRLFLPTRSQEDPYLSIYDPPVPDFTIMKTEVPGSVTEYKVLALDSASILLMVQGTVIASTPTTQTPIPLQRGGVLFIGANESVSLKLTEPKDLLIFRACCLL

[3] = biological target: T4, Adenosylmethionine-8-amino-7-oxononanoate aminotransferase (Mycobacterium tuberculosis, UniProt P9WQ81); assay: Mycobacterium tuberculosis BioA enzyme inhibitor Measured in Biochemical System Using Plate Reader - 2163-02_Inhibitor_Dose_CherryPick_Activity.; assay type: functional, Mycobacterium tuberculosis UT205
T4 sequence (P9WQ81 whole entry): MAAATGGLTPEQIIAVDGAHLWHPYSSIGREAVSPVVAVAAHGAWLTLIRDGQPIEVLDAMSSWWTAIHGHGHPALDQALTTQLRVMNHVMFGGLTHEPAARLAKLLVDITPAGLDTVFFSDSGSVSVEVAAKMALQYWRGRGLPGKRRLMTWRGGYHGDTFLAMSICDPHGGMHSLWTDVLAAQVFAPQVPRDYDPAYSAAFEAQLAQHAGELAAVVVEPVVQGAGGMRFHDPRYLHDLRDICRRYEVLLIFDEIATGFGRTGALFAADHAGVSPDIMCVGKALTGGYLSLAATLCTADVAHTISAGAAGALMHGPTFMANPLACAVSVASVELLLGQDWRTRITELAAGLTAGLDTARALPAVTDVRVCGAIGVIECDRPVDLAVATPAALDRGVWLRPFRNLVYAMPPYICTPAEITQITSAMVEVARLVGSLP

[4] = biological target: Induced myeloid leukemia cell differentiation protein Mcl-1 (Homo sapiens, UniProt Q07820); assay type: functional
[5] = viability of PTEN-deleted HCT116 cells – cell-based, HCT116 PTEN knockout, dose response (AID 1047); assay type: functional;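 further: HCT116 colon tumor cells with PTEN knocked out; cells exposed to compound for 60 hours before readout; potency for loss of cell viability measured by luminescence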
[6] = viability of HCT116 lacking mutant beta-catenin – cell-based, human colon tumor, dose response (AID 1045); assay type: functional;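 further: HCT116 colon tumor cells with beta catenin knocked out; cells exposed to compound for 60 hours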
Melanocortin receptor 4 = Melanocortin receptor 4 (Homo sapiens, UniProt P32245); assay type: functional, cell-based;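 further: Cell-based assay with luminescence read-out, confirmatory dose-response testing for agonist activity of biased ligands at MC4R; human U2OS cells with tagged receptor and beta-arrestin; potency of agonists that increase receptor coupling to beta-arrestin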
[7] = biological target: T5, Endoribonuclease toxin MazF (Escherichia coli K-12, UniProt P0AE70); assay: activation of MazEF endoribonuclease cleavage – biochemical, fluorescence, single-stranded RNA substrate, uHTS hits, dose response (AID 588481); assay type: functional
T5 sequence (P0AE70 whole entry): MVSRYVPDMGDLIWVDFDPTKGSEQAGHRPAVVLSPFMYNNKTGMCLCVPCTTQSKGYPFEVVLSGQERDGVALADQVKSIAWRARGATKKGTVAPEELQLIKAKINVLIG

[8] = biological target: T5, Endoribonuclease toxin MazF; assay: substrate-only fluorescence increase artefacts – biochemical, single-stranded RNase substrate, counter-screen for MazEF activator project, dose response (AID 588502); assay type: functional
Troponin, cardiac muscle = Troponin, cardiac muscle (Homo sapiens, UniProt P19429+P45379+P63316); assay: Fluorescence-based biochemical high throughput dose response assay for activators of the calcium sensitivity of cardiac Regulated Thin Filaments (RTF). [Related pubchem assays (depositor defined):AID493008, AID493018, AID504382, AID504383]; assay type: protein-complex assay
[9] = blockers of bursicon-stimulated LGR2 cAMP reporter – cell-based, HEK293, CRE-luciferase reporter, cherry pick, set 2, dose response (AID 743343); assay type: functional;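 further: transfected cells were stimulated with diluted bursicon conditioned medium after compound addition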
[10] = blockade of melanocortin 4 receptor signaling – cell-based, plate reader, cherry pick, counter-screen for LGR2 antagonist project, dose response (AID 743444); assay type: functional;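 further: transfected HEK 293 cells stimulated with alpha-MSH peptide; potency of inhibitors of the alpha-MSH evoked signal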
[11] = A549 cell cytotoxicity, dose response, cytotoxicity control, plate reader, cherry-pick, antagonist series (AID 743412); assay type: functional, cell-based
Protein Wnt-3a = Protein Wnt-3a (Mus musculus, UniProt P27467); assay: antagonism of Wnt3a pathway luciferase reporter – Wnt-LIGHT cells, luminescence, selectivity assay for Gli-SUFU antagonist project, dose response (AID 651570); assay type: functional; settings: read-out: IC50_Mean;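 further: Wnt-LIGHT reporter cells stimulated with conditioned medium from Wnt3a-producing cells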
[12] = loss of viability in HepG2 cells – cell-based, CellTiter-Glo, cherry-picked, cytotoxicity control for Shn3 inhibitor project, dose response (AID 624134); assay type: functional
[13] = non-specific 3'UTR reporter inhibition in Clone20-Shn3RL – cell-based, Renilla luciferase, cherry-picked, counter-screen for Shn3 inhibitor project, dose response (AID 624133); assay type: functional
[14] = reduction of Shn3 3'UTR-driven luciferase in osteoblasts – cell-based, Clone20 osteoblasts, firefly luciferase, cherry-picked, dose response (AID 624132); assay type: functional;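 further: firefly luciferase luminescence from reporter carrying the Shn3 3'UTR in osteoblasts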
[15] = HEK-293T viability loss after treatment – luminescence, T-cell screen hits, cytotoxicity control for TCR NF-kB inhibitor project, dose response (AID 489026); assay type: functional, cell-based;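 further: cells exposed to compound about 14 hours before the viability readout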
INS1 = assay: INS-1E survival protection against cytokine death – cell-based, luminescence, retest, dose response (AID 449756); assay type: functional; settings: Rattus norvegicus;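 further: cell death triggered by IL-1 beta plus TNF-alpha plus IFN-gamma mixture; protective hits raise ATP signal compared with cytokine alone wells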
Beta-galactosidase = Beta-galactosidase (Escherichia coli, UniProt Q8VNN2); assay: Dose response counterscreen for EBI2 assay utilizing the enzyme, b-galactosidase.; assay type: functional
cells [16] = assay type: functional, cell-based
cells [17] = assay type: functional, cell-based; remark: listed apart in the source
[18] = OVCAR-3 cell viability loss – plate reader, dry powder samples, PAX8 inhibitor project, dose response (AID 743044); assay type: functional, cell-based
[19] = OVCAR8 cell viability loss – plate reader, dry powder samples, PAX8 project, dose response (AID 743197); assay type: functional, cell-based; settings: OVCAR-8
[20] = IGROV1 cell killing – plate reader, dry powder samples, PAX8 inhibitor project, dose response (AID 743043); assay type: functional, cell-based; settings: IGROV-1
Paired box protein Pax-8 = Paired box protein Pax-8 (Homo sapiens, UniProt Q06710); assay: PAX8 transcriptional activity inhibition in RMG-I – RMG-I cells, luciferase, cherry-pick, dose response (AID 687027); assay type: functional, cell-based;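 further: luciferase reporter driven by Pax8 target thyroperoxidase promoter measured by SteadyGlo luminescence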
[21] = A2780 cell killing – plate reader, dry powder samples, cytotoxicity control, dose response (AID 743046); assay type: functional, cell-based

CCCCn1c(NC(=O)c2ccco2)c(S(=O)(=O)c2ccc(C)cc2)c2nc3ccccc3nc21
EC50 [1]: 152 µM (active)
EC50 (Protein RecA): > 380 µM (inactive)
IC50 [2]: > 50 µM (not active)

COc1ccc(CCNC(=O)c2cnc3n(c2=O)CCS3)cc1OC
AC50 [3]: 13.7 µM (active)

CSc1nc(N(C)CCO)c2sc3nc(-c4ccco4)c4c(c3c2n1)CCC4
IC50 [4]: 5.59 µM (active)

COc1cc(-c2nc3ccccc3nc2-c2ccc(O)c(OC)c2)ccc1O
AC50 [3]: 3.99 µM (active)

N#C/C(=C\c1ccc(-c2ccc(F)cc2)o1)C(=O)Nc1nc(-c2cccs2)cs1
EC50 [5]: 30 µM (active)
EC50 [6]: 25.6 µM (active)
EC50 (Melanocortin receptor 4): > 89.2 µM (inactive)
EC50 [7]: > 99 µM (inactive)
EC50 [8]: 27.2 µM (inactive)
EC50 (Troponin, cardiac muscle): > 71.5 µM (inactive)

CCOc1ccc(NC(S)=Nc2cccc3cnccc23)cc1
IC50 [2]: > 50 µM (not active)

CCCCc1ccc(NC(=O)c2cnccn2)cc1
AC50 [9]: 12.4 µM (active)
AC50 [10]: 9.42 µM (active)
AC50 [11]: > 52 µM (inactive)

COc1ccccc1-c1c(-c2ccc(O)cc2O)n[nH]c1C(F)(F)F
IC50 (Protein Wnt-3a): 2.07 µM (active)

CN(Cc1nccs1)C(=O)c1cc(COc2cccc3cnccc23)on1
AC50 [12]: 48.5 µM (active)
AC50 [13]: 1.2 µM (active)
AC50 [14]: 2.77 µM (active)
IC50 (Protein Wnt-3a): 1.3 µM (active)

CCCCc1ccc(NC(=O)C(=O)NCCN2CCN(Cc3ccc([N+](=O)[O-])cc3)CC2)cc1
IC50 [15]: > 80 µM (inactive)
AC50 [12]: 64.2 µM (active)
AC50 [13]: 4.92 µM (active)
AC50 [14]: 1.13 µM (active)
IC50 (Protein Wnt-3a): 1.8 µM (active)

CCN(CC)c1ccc(NC(=S)Nc2ccc(F)cc2)cc1
IC50 [2]: > 50 µM (not active)

Cc1sc2ncnc(N3CCN(S(=O)(=O)c4ccc(C(C)(C)C)cc4)CC3)c2c1C
AC50 (INS1): 3.23 µM (active)
IC50 (Protein Wnt-3a): 6.86 µM (active)

O=[N+]([O-])c1ccc(NN=Cc2cc(Br)ccc2O)nc1
IC50 (Beta-galactosidase): 39.2 µM (active)

COC(=O)c1ccc(/N=c2\sc(C(=O)OC)cc(=O)n2C)cc1
IC50 (Beta-galactosidase): > 80 µM (inactive)

COC(=O)c1c(C(=O)OC)c(-c2cccc(F)c2)n2c1C[S+]([O-])C2 (configuration not stated)
AC50 [3]: 0.659 µM (active)

O=C(/C=C/c1ccc(Cl)cc1)N1CCN(CCN2C(=O)c3cccc4cccc(c34)C2=O)CC1
IC50 (Beta-galactosidase): > 80 µM (inactive)

COc1ccc(-c2nc3ccc(Cl)cn3c2Cc2ccccc2)cc1OC
AC50 [3]: 10.6 µM (active)

CCOC(=O)[C@]12CCC=C1N(CCC1=CCCCC1)C(=O)[C@H](CC(=O)NCCc1ccccc1OC)C2
EC50 (cells [16]): > 29.9 µM (inactive)
IC50 (cells [17]): > 29.9 µM (inactive)

C[C@@H]1CCCCO[C@@H](CN(C)S(=O)(=O)c2ccc(Cl)cc2)[C@H](C)CN([C@H](C)CO)C(=O)c2cc(NS(=O)(=O)c3ccc(Cl)cc3)ccc2O1
AC50 [18]: 17.7 µM (active)
AC50 [19]: 19.5 µM (active)
AC50 [20]: 21.7 µM (active)
AC50 (Paired box protein Pax-8): 3.27 µM (active)
AC50 [21]: 55.8 µM (active)

C[C@@H]1CN([C@H](C)CO)C(=O)c2cc(NS(=O)(=O)c3cccs3)ccc2O[C@@H](C)CCCCO[C@@H]1CN(C)Cc1ccc(Cl)c(Cl)c1
AC50 [18]: 16.9 µM (active)
AC50 [19]: 20.5 µM (active)
AC50 [20]: 26.5 µM (active)
AC50 (Paired box protein Pax-8): 4.91 µM (active)
AC50 [21]: 27.8 µM (active)

COc1ccc(/C=N/N=C/c2cnc(O)c(C#N)c2Nc2ccccc2)cc1
IC50 (Beta-galactosidase): > 80 µM (inactive)
